Results on eight molecules are retold here after ChEMBL document CHEMBL6121026, “Targeted Therapeutics in Oncology and Neurology: Advances in Kinase Inhibition and Biomarkers for Brain Injury” (ACS Med Chem Lett, 2025).

Assay [1] has as its target RAC-alpha serine/threonine-protein kinase (Homo sapiens, UniProt P31749). Put plainly: Inhibition of Nano Luc-fused wild type AKT1 (unknown origin) expressed in HEK293 cells using luciferase substrate preincubated for 2 hrs followed by substrate added by NanoBRET Live cell target engagement assay. In kind it is cell-based. (In general: In BRET a luciferase serves as donor, and the signal depends on an acceptor being close.)

Assay [2] addresses RAC-beta serine/threonine-protein kinase (Homo sapiens, UniProt P31751). In words: Inhibition of Nano Luc-fused wild type AKT2 (unknown origin) expressed in HEK293 cells using luciferase substrate preincubated for 2 hrs followed by substrate added by NanoBRET Live cell target engagement assay. It counts as cell-based.

RAC-beta serine/threonine-protein kinase, sequence (P31751 whole entry, the tested form may be a part): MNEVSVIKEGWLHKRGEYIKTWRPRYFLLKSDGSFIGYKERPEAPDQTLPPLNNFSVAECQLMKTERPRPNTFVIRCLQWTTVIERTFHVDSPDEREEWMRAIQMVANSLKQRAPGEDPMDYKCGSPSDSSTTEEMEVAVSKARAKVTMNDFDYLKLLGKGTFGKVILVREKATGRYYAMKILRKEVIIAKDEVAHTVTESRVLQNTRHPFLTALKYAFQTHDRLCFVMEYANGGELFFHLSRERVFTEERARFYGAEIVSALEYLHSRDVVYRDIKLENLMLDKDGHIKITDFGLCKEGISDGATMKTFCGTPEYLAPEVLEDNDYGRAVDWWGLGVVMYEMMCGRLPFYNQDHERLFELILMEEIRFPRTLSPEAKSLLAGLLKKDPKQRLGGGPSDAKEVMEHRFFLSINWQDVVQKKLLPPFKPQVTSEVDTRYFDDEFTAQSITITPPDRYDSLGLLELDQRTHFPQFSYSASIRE
RAC-alpha serine/threonine-protein kinase, sequence (P31749 whole entry, the tested form may be a part): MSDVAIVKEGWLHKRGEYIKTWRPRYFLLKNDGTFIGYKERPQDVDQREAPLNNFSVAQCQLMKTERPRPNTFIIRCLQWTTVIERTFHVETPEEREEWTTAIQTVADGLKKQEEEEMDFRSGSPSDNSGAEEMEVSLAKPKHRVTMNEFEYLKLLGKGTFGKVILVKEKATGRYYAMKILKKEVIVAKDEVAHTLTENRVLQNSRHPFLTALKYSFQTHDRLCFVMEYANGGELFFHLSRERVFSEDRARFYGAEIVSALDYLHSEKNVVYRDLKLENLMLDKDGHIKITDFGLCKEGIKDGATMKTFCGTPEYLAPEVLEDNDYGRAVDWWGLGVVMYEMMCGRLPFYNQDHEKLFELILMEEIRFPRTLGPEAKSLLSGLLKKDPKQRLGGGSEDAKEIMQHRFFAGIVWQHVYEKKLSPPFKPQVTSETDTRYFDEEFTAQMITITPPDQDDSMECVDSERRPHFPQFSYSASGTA

As a reminder, the IC50 is the concentration at which inhibition is half-maximal. High values mean weaker potency, low ones greater potency. Take `CN1CCN(c2cccc(-c3ccc4nc(-c5cccnc5N)n(-c5ccc6c(c5)CC[C@@H]6NC(=O)c5ccc(O)c(C=O)c5)c4n3)c2)CC1`: the IC50 in assay [1] and in assay [2] was at most 10 nM in each case.
On to `Nc1ncccc1-c1nc2ccc(-n3cccn3)nc2n1-c1ccc2c(c1)CC[C@@H]2NC(=O)c1cc(C=O)c(O)c(F)c1F`, for which the IC50 in assay [1] and in assay [2] was at most 100 nM each time.
For the molecule `COc1cnn(-c2ccc3nc(-c4cccnc4N)n(-c4ccc5c(c4)CC[C@@H]5NC(=O)c4ccc(O)c(C=O)c4)c3n2)c1`, the results for the IC50 in assay [1] and in assay [2] were at most 100 nM and at least 2000 nM, respectively.
Taken in the same sequence, the figures for `Nc1ncccc1-c1nc2ccc(-c3ccccc3)nc2n1-c1ccc2c(c1)CC[C@@H]2NC(=O)c1cc(C=O)c(O)c(F)c1F` were at most 100 nM and at most 100 nM.
Take `Nc1ncccc1-c1nc2ccc(-c3ccccc3F)nc2n1-c1ccc2c(c1)CC[C@@H]2NC(=O)c1ccc(O)c(C=O)c1`: the half-inhibitory concentration (IC50) in assay [1] and in assay [2] was at most 100 nM each time.
In the case of `CS(=O)(=O)Nc1ccc(C(=O)N[C@H]2CCc3cc(-n4c(-c5cccnc5N)nc5ccc(-n6cccn6)nc54)ccc32)cc1C=O`, the IC50 in assay [1] is at most 100 nM; in assay [2] it was at least 2000 nM.
Taken in the same sequence, the figures for `CC(=O)Nc1ccc(C(=O)N[C@H]2CCc3cc(-n4c(-c5cccnc5N)nc5ccc(-c6ccccc6)nc54)ccc32)cc1C=O` were at most 10 nM and at most 100 nM.
For `Nc1ncccc1-c1nc2ccc(-c3ccccc3)nc2n1-c1ccc2c(c1)CC[C@@H]2NC(=O)c1cc(C=O)c2[nH]ncc2c1`, in that order: at most 100 nM and at most 100 nM.
